Values quoted from earlier work, collected in US20020015745A1, “Process for enhancing immune response in canines using a dietary composition including garlic” (priority 2000, published 2002).

Tested on: human prostate carcinoma LNCaP cells
Conditions: in culture

**Q.** For C=CCSSC[C@H](N)C(=O)O [S-allylmercaptocysteine], which “growth of human prostate carcinoma LNCaP cells” value is on record?
**A.** reduce the growth
